Laboratory results reported in patent publication US11203594B2, “Anti-proliferative agents for treating PAH” (Pfizer Inc., priority 2019, dated 2021).
Like-named read-outs stand apart in the source and are kept apart here.

Columns and labels:
CDK6/Cyclin D3 = CDK6/Cyclin D3 (Homo sapiens (Human), UniProt Q00534); test: CDK6/Cyclin D3 CHEF assay (Chelation-Enhanced Fluorescence), Ki by Morrison equation; type: biochemical; details: geometric mean, read-out: CDK6/Cyclin D3: GMean Ki
Text: (§1) In Vitro Purified Enzyme Assays to Determine Potency for CDKs
(§2) CDK4/Cyclin D1 and CDK6/Cylcin D3 CHEF Assay
(§3) The Chelation-Enhanced Fluorescence (CHEF) monitors the phosphorylation state in real time where the level of fluorescence is directly proportional to the amount of phosphorylated substrate. CHEF exploits a synthetic α-amino acid with a side chain bearing an 8-hydroxyquinoline derivative (sulfonamido-oxine, Sox) which, upon coordination to Mg(II), relays information on the phosphorylation state of a proximal serine, threonine or tyrosine residue in peptide-based kinase substrates. Phosphorylation of a specific peptide (Catalog # AQT0258) from AssayQuant Technologies results in an increase in fluorescence at the excitation and emission wavelengths of 360 nm Ex/485 nm Em.
(§4) Examples along with DMSO (negative) and Palbociclib (positive) controls were added to 384-well plates at 100-fold their final concentrations followed by the addition of 10 nM CDK4/Cyclin D1 (LJIC-2007F1) or 10 nM CDK6/Cyclin D3 (LJIC-2009H2) for a 20 minute pre-incubation in assay buffer containing 40 mM HEPES, 1 mM Dithiothreito (DTT, 10 mM MgCl2, 1% Glycerol, 0.1% BSA. Enzyme reactions were initiated by the addition of AssayQuant Technologies peptide and ATP substrates (10 μM CHEF peptide (Catalog # AQT0258), 2 mM ATP) and allowed to proceed for 2 hours followed by fluorescence read of the reaction. Ki determinations were made from a plot of the fractional velocity as a function of inhibitor concentration fit to the Morrison equation with the enzyme concentration as a variable.
(§5) For all the CDK4 and CDK6 assays the Ki constant for compounds were calculated for each enzyme using the Morrison equation. Fractional activity was measured at different compound concentrations, [I] and the data fit to the Morrison equation where [E] is the enzyme concentration, [S] is the ATP concentration, and Kn^App is the apparent Km for ATP for each enzyme under each assay format. With the Ki calculations dependent on the assay conditions for each assay format the resulting Ki becomes assay independent with a strong one to one correlation of Ki values for compounds tested in both assay formats.
(§6) In Table 2, assay data are presented to two (2) significant figures as the geometric mean (Ki) based on the number of replicates listed (Number). A cell having NA means there was no data for that Example in the indicated assay.

CDK4/Cyclin D1 = CDK4/Cyclin D1 (Homo sapiens (Human), UniProt P11802); test: CDK4/Cyclin D1 CHEF assay (Chelation-Enhanced Fluorescence), Ki by Morrison equation; type: biochemical; details: geometric mean, read-out: CDK4/Cyclin D1 GMean Ki
Text: as §1, §2, §3, §4, §5, §6

CDK4/Cyclin D1, sequence (P11802 whole entry): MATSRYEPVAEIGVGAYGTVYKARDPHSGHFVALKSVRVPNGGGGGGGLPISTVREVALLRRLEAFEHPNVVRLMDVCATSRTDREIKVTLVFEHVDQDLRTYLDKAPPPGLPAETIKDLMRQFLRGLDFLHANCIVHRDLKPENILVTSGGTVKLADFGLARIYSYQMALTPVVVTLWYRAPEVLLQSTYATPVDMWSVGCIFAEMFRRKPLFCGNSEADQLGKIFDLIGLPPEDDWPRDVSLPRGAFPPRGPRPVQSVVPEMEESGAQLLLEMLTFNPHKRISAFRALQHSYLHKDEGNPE
CDK4/Cyclin D1, sequence (P24385 whole entry partner): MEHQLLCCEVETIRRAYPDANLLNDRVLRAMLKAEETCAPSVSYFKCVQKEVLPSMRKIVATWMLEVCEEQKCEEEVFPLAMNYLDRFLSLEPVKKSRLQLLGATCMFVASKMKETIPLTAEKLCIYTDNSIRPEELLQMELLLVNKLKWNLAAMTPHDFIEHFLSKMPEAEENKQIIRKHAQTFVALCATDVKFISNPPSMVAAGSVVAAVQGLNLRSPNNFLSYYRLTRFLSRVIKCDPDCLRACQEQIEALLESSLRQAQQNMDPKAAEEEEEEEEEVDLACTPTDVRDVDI
CDK6/Cyclin D3, sequence (Q00534 whole entry): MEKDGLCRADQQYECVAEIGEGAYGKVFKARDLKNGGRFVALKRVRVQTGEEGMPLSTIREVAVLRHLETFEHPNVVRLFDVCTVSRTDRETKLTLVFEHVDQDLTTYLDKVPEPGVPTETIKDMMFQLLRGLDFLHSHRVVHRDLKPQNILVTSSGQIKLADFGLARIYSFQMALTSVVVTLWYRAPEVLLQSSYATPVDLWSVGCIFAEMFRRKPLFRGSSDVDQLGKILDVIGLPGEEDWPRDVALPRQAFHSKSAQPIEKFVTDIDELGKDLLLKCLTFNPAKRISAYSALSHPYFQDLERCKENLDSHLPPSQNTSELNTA
CDK6/Cyclin D3, sequence (P30281 whole entry partner): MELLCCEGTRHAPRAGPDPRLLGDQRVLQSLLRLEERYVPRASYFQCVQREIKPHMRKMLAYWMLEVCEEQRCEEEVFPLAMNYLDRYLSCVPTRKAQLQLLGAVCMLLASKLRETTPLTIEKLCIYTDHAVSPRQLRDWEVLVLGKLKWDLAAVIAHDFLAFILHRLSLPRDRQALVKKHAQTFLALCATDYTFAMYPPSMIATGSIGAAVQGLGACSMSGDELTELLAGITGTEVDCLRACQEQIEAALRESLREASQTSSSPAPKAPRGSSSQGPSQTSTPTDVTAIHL

| SMILES | Ki (CDK6/Cyclin D3; tested in CHEF Assay) | Ki (CDK4/Cyclin D1; tested in CHEF Assay) | Ki (CDK6/Cyclin D3; tested in both CHEF and MSA) | Ki (CDK4/Cyclin D1; tested in both CHEF and MSA) |
| --- | --- | --- | --- | --- |
| CC(=O)c1c(C)c2cnc(N[C@@H]3CCOC[C@H]3O)cc2n(C2CCC(O)C2)c1=O (single isomer, unassigned) [Example 15] | 7.7 nM | 3.8 nM |  |  |
| CC(=O)c1c(C)c2cnc(N[C@@H]3CCOC[C@H]3O)nc2n(C2CC(C)(C)C2)c1=O [Example 19, 6-Acetyl-8-(3,3-dimethylcyclobutyl)-2-{[(3S,4R)-3-hydroxytetrahydro-2H-pyran-4-yl]amino}-5-methylpyrido[2,3-d]pyrimidin-7(8H)-one] | 4.2 nM | 4.5 nM |  |  |
| COCCN1CC2(CC(n3c(=O)c(C(C)=O)c(C)c4cnc(N[C@@H]5CCOC[C@H]5O)nc43)C2)C1 [Example 28] | 36 nM | 10 nM |  |  |
| CC(=O)c1c(C)c2cnc(N[C@@H]3CCOC[C@H]3O)nc2n([C@@H]2CC[C@@H]3C[C@@H]32)c1=O (mixture of isomers) [Example 13, 6-Acetyl-8-[(1S,2R,5R)-bicyclo[3.1.0]hexan-2-yl]-2-{[(3S,4R)-3-hydroxytetrahydro-2H-pyran-4-yl]amino}-5-methylpyrido[2,3-d]pyrimidin-7(8H)-one and 6-Acetyl-8-[(1R,2S,5S)-bicyclo[3.1.0]hexan-2-yl]-2-{[(3S,4R)-3-hydroxytetrahydro-2H-pyran-4-yl]amino}-5-methylpyrido[2,3-d]pyrimidin-7(8H)-one] | 3.3 nM | 2.1 nM |  |  |
| CC(=O)c1c(C)c2cnc(N[C@@H]3CCOC[C@H]3O)nc2n([C@H]2CCC[C@]2(C)F)c1=O (single isomer, unassigned) [Example 23] | > 560 nM | > 1100 nM |  |  |
| CC(=O)c1c(C)c2cnc(N[C@@H]3CCOC[C@H]3O)nc2n([C@@H]2CC[C@@H]3C[C@@H]32)c1=O (mixture of isomers) [Example 12, 6-Acetyl-8-[(1S,2R,5R)-bicyclo[3.1.0]hexan-2-yl]-2-{[(3S,4R)-3-hydroxytetrahydro-2H-pyran-4-yl]amino}-5-methylpyrido[2,3-d]pyrimidin-7(8H)-one and 6-Acetyl-8-[(1R,2S,5S)-bicyclo[3.1.0]hexan-2-yl]-2-{[(3S,4R)-3-hydroxytetrahydro-2H-pyran-4-yl]amino}-5-methylpyrido[2,3-d]pyrimidin-7(8H)-one] | 9.7 nM | 8.5 nM |  |  |
| CC(=O)c1c(C)c2cnc(N[C@@H]3CCOC[C@H]3O)nc2n([C@H]2CCC[C@]2(C)O)c1=O (mixture of isomers) [Example 7, 6-Acetyl-8-[(1S,2S)-2-hydroxy-2-methylcyclopentyl]-2-{[(3S,4R)-3-hydroxytetrahydro-2H-pyran-4-yl]amino}-5-methylpyrido[2,3-d]pyrimidin-7(8H)-one and 6-Acetyl-8-[(1R,2R)-2-hydroxy-2-methylcyclopentyl]-2-{[(3S,4R)-3-hydroxytetrahydro-2H-pyran-4-yl]amino}-5-methylpyrido[2,3-d]pyrimidin-7(8H)-one] | 7.7 nM | 7.2 nM |  |  |
| CC(=O)c1c(C)c2cnc(N[C@@H]3CCOC[C@H]3O)nc2n([C@H]2CCC[C@]2(C)O)c1=O (mixture of isomers) [Example 6, 6-Acetyl-8-[(1S,2S)-2-hydroxy-2-methylcyclopentyl]-2-{[(3S,4R)-3-hydroxytetrahydro-2H-pyran-4-yl]amino}-5-methylpyrido[2,3-d]pyrimidin-7(8H)-one and 6-Acetyl-8-[(1R,2R)-2-hydroxy-2-methylcyclopentyl]-2-{[(3S,4R)-3-hydroxytetrahydro-2H-pyran-4-yl]amino}-5-methylpyrido[2,3-d]pyrimidin-7(8H)-one] | 190 nM | 113 nM |  |  |
| CC(=O)c1c(C)c2cnc(N[C@@H]3CCOC[C@H]3O)nc2n(C2CC3(C2)CN(CC(F)F)C3)c1=O [Example 29, 6-acetyl-8-[2-(2,2-difluoroethyl)-2-azaspiro[3.3]heptan-6-yl]-2-{[(3S,4R)-3-hydroxytetrahydro-2H-pyran-4-yl]amino}-5-methylpyrido[2,3-d]pyrimidin-7(8H)-one] | 4.9 nM | 1.9 nM |  |  |
| CC[C@H]1CCC[C@H]1n1c(=O)c(C(C)=O)c(C)c2cnc(N[C@@H]3CCOC[C@H]3O)nc21 [Example 10, 6-Acetyl-8-[(1R,2S)-2-ethylcyclopentyl]-2-{[(3S,4R)-3-hydroxytetrahydro-2H-pyran-4-yl]amino}-5-methylpyrido[2,3-d]pyrimidin-7(8H)-one] | 5 nM | 2.7 nM |  |  |
| CC(=O)c1c(C)c2cnc(N[C@@H]3CCOC(C)(C)[C@H]3O)nc2n(C2CCCC2)c1=O (mixture of isomers) [Example 9, 6-Acetyl-8-cyclopentyl-2-{[(3S,4R)-3-hydroxy-2,2-dimethyltetrahydro-2H-pyran-4-yl]amino}-5-methylpyrido[2,3-d]pyrimidin-7(8H)-one and 6-Acetyl-8-cyclopentyl-2-{[(3R,4S)-3-hydroxy-2,2-dimethyltetrahydro-2H-pyran-4-yl]amino}-5-methylpyrido[2,3-d]pyrimidin-7(8H)-one] | 6.7 nM | 2.7 nM |  |  |
| CC(=O)c1c(C)c2cnc(N[C@@H]3CCOC[C@H]3O)nc2n(C2CC3(CNC3)C2)c1=O [Example 3, 6-Acetyl-8-(2-azaspiro[3.3]heptan-6-yl)-2-{[(3S,4R)-3-hydroxytetrahydro-2H-pyran-4-yl]amino}-5-methylpyrido[2,3-d]pyrimidin-7(8H)-one] | 2.1 nM | 1.1 nM |  |  |
| CC(=O)c1c(C)c2cnc(N[C@@H]3CCOC[C@H]3O)cc2n(C2CCCC2)c1=O [Example 5, 3-Acetyl-1-cyclopentyl-7-{[(3S,4R)-3-hydroxytetrahydro-2H-pyran-4-yl]amino}-4-methyl-1,6-naphthyridin-2(1H)-one] |  |  | 1.3 nM | 0.4 nM |

Now from value to compound:

| Ki (CDK6/Cyclin D3; tested in CHEF Assay) | Ki (CDK4/Cyclin D1; tested in CHEF Assay) | Ki (CDK6/Cyclin D3; tested in both CHEF and MSA) | Ki (CDK4/Cyclin D1; tested in both CHEF and MSA) | SMILES |
| --- | --- | --- | --- | --- |
| 2.1 nM | 1.6 nM |  |  | CC(=O)c1c(C)c2cnc(N[C@@H]3CCOC[C@H]3O)nc2n([C@@H]2CCC[C@@H]2C)c1=O [Example 4, 6-Acetyl-2-{[(3S,4R)-3-hydroxytetrahydro-2H-pyran-4-yl]amino}-5-methyl-8-[(1R,2S)-2-methylcyclopentyl]pyrido[2,3-d]pyrimidin-7(8H)-one] |
| 2 nM | 1.8 nM |  |  | CC(=O)c1c(C)c2cnc(N[C@@H]3CCOC[C@H]3O)nc2n(C2CCC2)c1=O [Example 1, 6-Acetyl-8-cyclobutyl-2-{[(3S,4R)-3-hydroxytetrahydro-2H-pyran-4-yl]amino}-5-methylpyrido[2,3-d]pyrimidin-7(8H)-one] |
| > 570 nM | 430 nM |  |  | CC(=O)c1c(C)c2cnc(N[C@H]3CCOC[C@@H]3O)nc2n(C2CCCC2)c1=O [Example 30, 6-acetyl-8-cyclopentyl-2-{[(3R,4S)-3-hydroxytetrahydro-2H-pyran-4-yl]amino}-5-methylpyrido[2,3-d]pyrimidin-7(8H)-one] |
|  |  | 1.2 nM | 0.8 nM | CC(=O)c1c(C)c2cnc(N[C@@H]3CCOC[C@H]3O)nc2n(C2CCCC2)c1=O [Example 2, 6-acetyl-8-cyclopentyl-2-{[(3S,4R)-3-hydroxytetrahydro-2H-pyran-4-yl]amino}-5-methylpyrido[2,3-d]pyrimidin-7(8H)-one] |
| 24 nM | 13 nM |  |  | CC(=O)c1c(C)c2cnc(N[C@@H]3CCOC[C@H]3O)nc2n([C@H]2CC[C@H](N)CC2)c1=O [Example 24] |
| 13 nM | 13 nM |  |  | CC(=O)c1c(C)c2cnc(N[C@@H]3CCOC[C@H]3O)nc2n([C@H]2C[C@H](O)C2)c1=O [Example 21, 6-acetyl-8-(trans-3-hydroxycyclobutyl)-2-{[(3S,4R)-3-hydroxytetrahydro-2H-pyran-4-yl]amino}-5-methylpyrido[2,3-d]pyrimidin-7(8H)-one] |
| 58 nM | 54 nM |  |  | CC(=O)c1c(C)c2cnc(N[C@@H]3CCOC[C@H]3O)nc2n([C@H]2CC[C@@H](O)CC2)c1=O [Example 20, 6-acetyl-8-(cis-4-hydroxycyclohexyl)-2-{[(3S,4R)-3-hydroxytetrahydro-2H-pyran-4-yl]amino}-5-methylpyrido[2,3-d]pyrimidin-7(8H)-one] |
| 85 nM | 52 nM |  |  | CC(=O)c1c(C)c2cnc(N[C@@H]3CCOC[C@H]3O)nc2n(C2CC2)c1=O [Example 34] |
